Values of other authors in patent publication US20120183610A1, “GLUCOCORTICOID THERAPY” (priority 2009, published 2012).

Assays:
[1] = dose equivalent to 20 mg hydrocortisone
[2] = after 2.3 to 6.8 months; mean dose reduced to 20.8±1.0 mg; p<0.01
[3] = 30 to 15 mg daily; after 3 months

## CC(=O)OCC(=O)[C@@]1(O)CC[C@H]2[C@@H]3CCC4=CC(=O)CC[C@]4(C)[C@H]3C(=O)C[C@@]21C [Cortisone acetate]
[1]
  Equivalent amount: 25 mg

## C[C@]12CCC(=O)C=C1CC[C@@H]1[C@@H]2[C@@H](O)C[C@@]2(C)[C@H]1CC[C@]2(O)C(=O)CO [Hydrocortisone]
[2]
  serum concentration of osteocalcin at re-evaluation: 0.0199 µg/mL
11 patients with secondary adrenal insufficiency
  BMI before dose reduction: 31.5±1.1 kg/m^2
Dose reduced on average by 50%
  fasting glucose and insulin levels after dose reduction: unaffected
Dose reduced on average by 50%, 11 patients, follow-up 6-12 months
  body weight reduction, on average: 7.1 kg
Dose reduced on average by 50%, follow-up 6-12 months
  BMI after dose reduction: 29.4±1.0 kg/m^2
[3]
  body weight and cardiovascular functional variables after dose reduction: no change in body weight or any of the cardiovascular functional variables studied
[1]
  Equivalent amount: 20 mg

## C[C@@H]1C[C@H]2[C@@H]3C[C@H](F)C4=CC(=O)C=C[C@]4(C)[C@H]3[C@@H](O)C[C@]2(C)[C@@]1(O)C(=O)CO [Paramethasone]
[1]
  Equivalent amount: 2 mg

## C[C@]12C=CC(=O)C=C1CC[C@@H]1[C@@H]2[C@@H](O)C[C@@]2(C)[C@H]1CC[C@]2(O)C(=O)CO [Prednisolone]
[1]
  Equivalent amount: 5 mg

## C[C@]12C=CC(=O)C=C1CC[C@H]1[C@@H]3C[C@@H](O)[C@](O)(C(=O)CO)[C@@]3(C)C[C@H](O)[C@@]12F [Triamcinolone]
[1]
  Equivalent amount: 4 mg
